Here are results for 6 molecules from PMC8482274, “Inadequate Cerebrospinal Fluid Concentrations of Available Salvage Agents Further Impedes the Optimal Treatment of Multidrug-Resistant Enterococcus faecium Meningitis and Bacteremia” (Infectious Disease Reports, 2021).

In brackets after ≈: the same amount, converted by molar mass. Like-named read-outs stand apart in the source and are kept apart here. Numbered stars: 1 amine (or outer) side, 2 acyl side, 3 side chain; on linkers, the order of the positions; unused ones are H or OH. Bridge positions count the residues as written; N and C are the ends. Square brackets hold non-standard residues; d marks the D form. Peptide text beside a SMILES is read from it. * marks the point of attachment. X1 = O=C1C[C@@H](C(=O)[*:2])N([*:1])C[C@H]1CS[C@@H]1CN2CCC1CC2; NMePhe(4-NMe2) = CN[C@@H](Cc1ccc(N(C)C)cc1)C(=O)O; Picolinoyl(3-OH) = O=C(c1ncccc1O)*; Phg = N[C@H](C(=O)O)c1ccccc1; dAbu = CC[C@@H](N)C(=O)O

The conditions of data set [1]: cited from earlier work.
The subject of a further data set is VREf. As to the kind of experiment: microbe, parasite or virus in culture. In kind it is cell-based, Enterococcus faecium. As to conditions: for local laboratory susceptibility result: VREf blood isolate of hospital day 22. Here is the method: (§1) Initial organism identification and susceptibility determination were performed via MALDI-TOF MS (Bruker Daltonics, Billerica, MA, USA) and MicroScan Walkaway (Beckman Coulter, Brea, CA), respectively, in the clinical microbiology laboratory. Pure colonies of the VREf isolates cultured from the CSF on hospital days 33 and 57 and from blood on days 35 and 52 were sub-cultured to BD BBL chocolate II agar slants (Becton, Dickinson and Company, Sparks, MD, USA) and shipped immediately overnight to the research laboratory where all subsequent testing was performed. Identification and resistance marker detection was confirmed via the Verigene Gram-positive blood culture assay (Luminex, Northbrook, IL, USA).

The subject of the next data set is VREf isolates. The data set is described as follows: microbe, parasite or virus in culture. On the procedure: as §1
Minimum inhibitory concentrations were determined in triplicate according to CLSI guidelines. Modal MIC values are reported.

For data set [2] the following is noted: cited from earlier work. This is another data set of the same source.
The conditions of data set [3]: in vivo; cited from earlier work. An excerpt:
Almost exactly 2 days had elapsed between the time of the patient’s last oritavancin dose and the time of CSF collection.

The nature of data set [4]: Estimated unbound plasma concentration, CSF/plasma penetration and projected maximum CSF concentration extrapolated from published pharmacokinetic data. On the procedure: CSF samples were immediately frozen at −80 °C and shipped overnight on dry ice. […] Results are presented as the mean (±SD) of the two measured CSF concentrations. Additionally, estimated corresponding unbound plasma concentrations at the time of CSF collection were extrapolated for each agent from published pharmacokinetic data in order to establish an estimate of the degree of CSF/plasma penetration. This % CSF/plasma penetration was then utilized to predict the maximum post-dose CSF concentration on the basis of the peak free plasma concentration (fCmax) and the time of fCmax (Tmax) of each agent. Finally, these predictions were evaluated against published data, all of which were restricted to animal studies except for tigecycline.

Where [5] appears, read: VREf blood isolate returning after 11 days of daptomycin therapy.
Where [6] appears, read: VREf isolate from CSF, hospital day 33, CLSI M100-S30 unless footnoted (b: CLSI vancomycin-susceptible E. faecalis; c: FDA E. faecalis; d: EUCAST v.10.0 E. faecium).
Where [7] appears, read: VREf isolate from CSF, hospital day 57, CLSI M100-S30 unless footnoted.
The mark [8] stands for this setting: VREf isolate from blood, hospital day 35, CLSI M100-S30 unless footnoted.
[9] abbreviates: VREf isolate from blood, hospital day 52, CLSI M100-S30 unless footnoted.
Where [10] appears, read: Enterococcus faecium, VREf isolate from CSF, hospital day 57, modal MIC of triplicate, CLSI guidelines.
[11] abbreviates: Enterococcus faecium, VREf isolate from blood, hospital day 52, modal MIC of triplicate, CLSI guidelines.
Setting [12] is: Enterococcus faecium, VREf isolate from CSF, hospital day 33, modal MIC of triplicate, CLSI guidelines.
The mark [13] stands for this setting: Enterococcus faecium, VREf isolate from blood, hospital day 35, modal MIC of triplicate, CLSI guidelines.

Take `CCN(CC)CCS(=O)(=O)[C@@H]1CCN2C(=O)c3coc(n3)CC(=O)C[C@H](O)/C=C(C)/C=C/CNC(=O)/C=C/[C@@H](C)[C@@H](C(C)C)OC(=O)[C@@H]12` [Dalfopristin]: the “Published % CSF/Plasma Penetration” value in data set [1] (rabbit pneumococcal meningitis data) is 0 [23, 27] %.

In the case of `CCCCCCCCCC(=O)N[C@@H](Cc1c[nH]c2ccccc12)C(=O)N[C@H](CC(N)=O)C(=O)N[C@@H](CC(=O)O)C(=O)N[C@@H]1C(=O)NCC(=O)N[C@@H](CCCN)C(=O)N[C@@H](CC(=O)O)C(=O)N[C@H](C)C(=O)N[C@@H](CC(=O)O)C(=O)NCC(=O)N[C@H](CO)C(=O)N[C@@H]([C@H](C)CC(=O)O)C(=O)N[C@@H](CC(=O)c2ccccc2N)C(=O)O[C@@H]1C` [Daptomycin], in the data set with VREf, the “local laboratory susceptibility result” value is on record as “resistance”. Also, the susceptibility category result in the data set on VREf (setting [5]) is on record as “resistant”; with VREf (first episode of VREf bacteremia, 2.5 months before admission), “susceptible dose-dependent”. In addition, in the data set on VREf isolates, the MIC was no less than 8 µg/mL. The “Interpretive Category” value with VREf isolates (setting [6]), with VREf isolates (setting [7]), in the data set with VREf isolates (setting [8]) and with VREf isolates (setting [9]) was “R” each time.

Take `CN(C)[C@@H]1C(O)=C(C(N)=O)C(=O)[C@@]2(O)C(O)=C3C(=O)c4c(O)c(NC(=O)CN5CCCC5)cc(F)c4C[C@H]3C[C@@H]12` [Eravacycline]: the CNS penetration entry in data set [1] (rabbits) is “virtually zero”. In addition, the MIC with VREf isolates (setting [10]) and in the data set on VREf isolates (setting [11]) was 0.12 µg/mL in each case. Also, the “Interpretive Category” value in the data set with VREf isolates (setting [7]) and in the data set with VREf isolates (setting [9]) was “S” throughout.

In the case of `CC(=O)NC[C@H]1CN(c2ccc(N3CCOCC3)c(F)c2)C(=O)O1` [Linezolid], the MIC stood at 2 µg/mL (≈ 5.93 µM) against VREf (Enterococcus faecium, VREf blood isolate returning after 11 days of daptomycin therapy, daptomycin by broth microdilution); 16 µg/mL in the data set on VREf isolates (setting [12]); 16 µg/mL with VREf isolates (setting [10]); 16 µg/mL with VREf isolates (setting [13]); 16 µg/mL with VREf isolates (setting [11]). In addition, the “local laboratory susceptibility result” value in the data set on VREf was “resistance”. Besides, the susceptibility category result in the data set on VREf (setting [5]) was “susceptible”. Further, the CSF penetration in data set [2] (human, in vivo) is listed as 66–85%. Moreover, the “Interpretive Category” value in the data set on VREf isolates (setting [6]), in the data set on VREf isolates (setting [7]), in the data set with VREf isolates (setting [8]) and in the data set on VREf isolates (setting [9]) was “R” each time.

On to `CC[C@H]1NC(=O)[C@@H](NC(=O)c2ncccc2O)[C@@H](C)OC(=O)[C@H](c2ccccc2)NC(=O)[C@@H]2CC(=O)[C@H](CS[C@@H]3CN4CCC3CC4)CN2C(=O)[C@H](Cc2ccc(N(C)C)cc2)N(C)C(=O)[C@@H]2CCCN2C1=O` [Quinupristin] ({Picolinoyl(3-OH)}-T[dAbu]P[NMePhe(4-NMe2)][X1][Phg]; ester 1-C), for which the “Published % CSF/Plasma Penetration” value in data set [1] (rabbit, in vivo) was 0 [23, 27] %.

Turning to `CN(C)c1cc(NC(=O)CNC(C)(C)C)c(O)c2c1C[C@H]1C[C@H]3[C@H](N(C)C)C(O)=C(C(N)=O)C(=O)[C@@]3(O)C(O)=C1C2=O` [Tigecycline], the half-life result in data set [3] was “≈ 30 h”. In data set [2] (a patient with cerebritis due to Acinetobacter), the penetration ratios is listed as 7–36%. Besides, the “Published % CSF/Plasma Penetration” value in data set [2] (human, in vivo) was 5–41 [21, 22] %. Moreover, the MIC in the data set with VREf isolates (setting [12]), with VREf isolates (setting [10]), with VREf isolates (setting [13]) and with VREf isolates (setting [11]) was 0.25 µg/mL in each case. For the same molecule, the “Interpretive Category” value in the data set with VREf isolates (setting [6]), with VREf isolates (setting [7]), with VREf isolates (setting [8]) and in the data set on VREf isolates (setting [9]) was “S” each time. For the same molecule, the “projected maximal CSF concentration at plasma Tmax” value in data set [4] (in vivo) was “approximately 0.197 mg/L”. Moreover, the CSF/plasma ratio in data set [4] (this patient, point estimate) is recorded as 65.5%.
